In article PMC7227612 (Clinical cancer research : an official journal of the …, 2009):
Marks after values point to notes of the source that are not given here.

Experiments:
[1] = Steady-state plasma pharmacokinetics, group A; assay type: in vivo, human; details: for Cav,ss: geometric mean (%CV); for Cmax / Tmax: human, plasma, oral
glioma cells = assay: Cytotoxic activity against glioma cells in vitro; assay type: cell-based; details: Supplementary Fig. S1, concentration dependent
[2] = Toxicity and dose limiting toxicity; assay type: in vivo
GSK3β = assay: Inhibition of GSK3β phosphorylation and activity in glioma cells in vitro; assay type: cell-based; details: Supplementary Fig. S1, concentration dependent
[3] = tested on: recurrent malignant glioma; assay: Tumor response; assay type: in vivo, human
[4] = Steady-state plasma pharmacokinetics, group B; assay type: in vivo, human; details: for Cmax / Tmax: human, plasma, oral; for Cmax: Cmax,ss
[5] = tested on: phosphorylated GSK3β (pGSK3β); assay: pGSK3β in patient peripheral blood mononuclear cells; assay type: in vivo, human
[6] = Group B, 500 mg twice daily, Patient 2
[7] = Group B, 1,000 mg daily, Patient 1
[8] = Group B, 1,000 mg daily, Patient 2
[9] = 500 mg, Group B, 500 mg twice daily, Patient 2
[10] = 1000 mg daily, Group B, 1,000 mg daily, Patient 1
[11] = 1000 mg daily, Group B, 1,000 mg daily, Patient 2

Cn1cc(C2=C(c3cn(C4CCN(Cc5ccccn5)CC4)c4ccccc34)C(=O)NC2=O)c2ccccc21 [Enzastaurin]
Cav,ss ([1]; DL 1, 800 mg daily, n = 12): 1,130 (89) nmol/L | Cav,ss ([1]; DL-1, 250 mg twice daily, n = 3): 1,040 (124) nmol/L | Cav,ss ([1]; DL-1, 500 mg daily, n = 5): 472 (109) nmol/L | Cmax ([1]; 250 mg): 1390 nM | Tmax ([1]; 250 mg): 6.03 h | Cmax ([1]; 400 mg): 2710 nM | Tmax ([1]; 400 mg): 4.03 h | Cmax ([1]; 500 mg): 979 nM | Tmax ([1]; 500 mg): 2.08 h | Tmax ([1]; 800 mg): 4 h | Cytotoxicity (glioma cells): direct cytotoxic activity | Dose-limiting toxicities ([2]; human, in vivo): thrombocytopenia and prolonged QTc | Elevated ALT, Grade 1-2 ([2]; human, in vivo): 5 (23%) | Elevated ALT, Grade 3-4 ([2]; human, in vivo): 1 | Elevated AST, Grade 1-2 ([2]; human, in vivo): 9 (41%) | Elevated AST, Grade 3-4 ([2]; human, in vivo): 0 | Hematuria, Grade 1-2 ([2]; human, in vivo): 1 | Hematuria, Grade 3-4 ([2]; human, in vivo): 0 | Hypermagnesemia, Grade 1-2 ([2]; human, in vivo): 1 | Hypermagnesemia, Grade 3-4 ([2]; human, in vivo): 0 | Intracranial hemorrhage, Grade 1-2 ([2]; human, in vivo): 0 | Intracranial hemorrhage, Grade 3-4 ([2]; human, in vivo): 0 | Nausea, Grade 1-2 ([2]; human, in vivo): 1 | Nausea, Grade 3-4 ([2]; human, in vivo): 0 | Proteinuria, Grade 1-2 ([2]; human, in vivo): 1 | Proteinuria, Grade 3-4 ([2]; human, in vivo): 0 | QTc prolongation, Grade 1-2 ([2]; human, in vivo): 5 (23%) | QTc prolongation, Grade 3-4 ([2]; human, in vivo): 2 (9%) ^* | Relationship between QTcB changes from baseline and plasma concentrations ([2]; human, in vivo): no significant relationship | Thrombocytopenia, Grade 1-2 ([2]; human, in vivo): 6 (27%) | Thrombocytopenia, Grade 3-4 ([2]; human, in vivo): 5 (23%) | Patients with dose limiting grade 3 thrombocytopenia ([2]; human, in vivo, 6 wk): 2 | Elevated ALT, Grade 5 ([2]; number of patients, N = 22): 0 | Elevated AST, Grade 5 ([2]; number of patients, N = 22): 0 | Hematuria, Grade 5 ([2]; number of patients, N = 22): 0 | Hypermagnesemia, Grade 5 ([2]; number of patients, N = 22): 0 | Nausea, Grade 5 ([2]; number of patients, N = 22): 0 | Proteinuria, Grade 5 ([2]; number of patients, N = 22): 0 | QTc prolongation, Grade 5 ([2]; number of patients, N = 22): 0 | Thrombocytopenia, Grade 5 ([2]; number of patients, N = 22): 0 | Intracranial hemorrhage, Grade 5 ([2]; number of patients, N = 22, in the setting of grade 3 thrombocytopenia): 1 ^† | Phosphorylation and activity of GSK3β (GSK3β): inhibits | Complete response (patients) ([3]; 19 patients evaluable): 1 | Partial response (patients) ([3]; 19 patients evaluable): 1 | Objective responses ([3]; 19 patients evaluable for radiographic response): 11% | Median overall survival ([3]; entire study group): 5.7 months | Median progression-free survival ([3]; entire study group): 1.4 months | Duration complete response maintained on therapy ([3]; one patient, Fig. 2): > 3 y | CL/F [4, 6]: 27 L/h | Cav,ss [4, 6]: 3,050 nmol/L | CL/F [4, 7]: 60 L/h | Cav,ss [4, 7]: 1,340 nmol/L | CL/F [4, 8]: 60 L/h | Cav,ss [4, 8]: 1,350 nmol/L | Cmax [4, 9]: 4090 nM | Tmax [4, 9]: 4 h | Cmax [4, 10]: 3010 nM | Cmax [4, 11]: 2730 nM | Tmax [4, 10]: 4 h | Tmax [4, 11]: 2 h | pGSK3β levels at steady state vs baseline ([5]; five patients who achieved disease control): decreased from baseline | pGSK3β at steady state vs baseline ([5]; one patient with progressive disease, after the first 3 weeks of therapy): increased | Kinetics of pGSK3β in peripheral blood mononuclear cells after administration ([5]; two patients, Fig. 3B): decrease in a time dependent manner
